# Data: patent US20150345047A1, “SYSTEMS AND METHODS FOR IDENTIFYING DRUG COMBINATIONS FOR REDUCED DRUG RESISTANCE IN CANCER TREATMENT” (Memorial Sloan Kettering Cancer Center, priority 2014, published 2015)
# Tests used:
# Assay type in all cases: cell-based
# AKTpS473 = assay: Western blot IC40 of downstream effector readout; details: concentration inhibiting AKTpS473 readout by 40%, SkMel133
# Experimental: (§1) In total, cells were treated with 89 unique perturbations (Table 3). In paired combinations, each drug concentration was selected to inhibit the readout for the presumed target or the downstream effectors by 40% (IC40) as determined by Western Blot experiments. In single agent perturbations, each drug is applied at two different concentrations, IC40 and 2×IC40.
# P27/Kip1 = assay: Western blot IC40 of downstream effector readout; details: concentration changing P27/Kip1 readout by 40%, SkMel133
# Experimental: as §1
# SkMel133 cells = assay: Cell viability, resazurin assay; details: highest doses applied
# Experimental: All phenotypic measurements were made in perturbation conditions identical to those in proteomic measurements. Cell viability and cell cycle progression were measured 72 hours after drug treatment using the Resazurin assay and flow cytometry analysis respectively. The percentage of cells in the G1, G2/M, and S phases and sub-G1 fraction were recorded based on the respective distribution of DNA content in each phase.
# c-Myc = assay: Western blot of c-Myc expression; details: 24 hours after drug treatment, SkMel133
# Experimental: (§2) FIGS. 6A-6E illustrate the combined targeting of c-Myc with MEK and BRAF leads to synergistic response in melanoma cells. […] The leftward shift of isocurves implies synergistic interactions between the applied perturbations. u denotes strength of in silico perturbations. […] The BRD4 level is unchanged in response to JQ1 treatment. […] C-Myc expression is targeted with BRD4 inhibitor, JQ1. […] Cell viability is measured using the resazurin assay. […] The combination index (CI) calculated using the drug dose response curves quantifies the drug interactions between JQ1, MEKi and RAFi (left panel). CI for a given level of inhibition is a measure of the fractional shift between the combination doses (C1 and C2) and the single agent's inhibitory concentration (Cx,1, Cx,2). It is formulated as CI=(C1/Cx,1)[…](C2/Cx,2). Amax is the response of melanoma cells to JQ1, MEKi and RAFi at highest doses applied (right panel). 1-Amax is the fraction of cells alive in response to highest drug dose normalized with respect to the non-drug treated condition. […] 86% of cells are in G1 state 48 hours after JQ1 treatment, while 42% of the cells are in G1 state before drug treatment (error bars: ±SEM in 3 biological replicates).
# First, it was postulated whether c-Myc levels in SkMel133 cells could be targeted using JQ1. […]
# BRD4 = assay: Western blot of BRD4 level; details: 24 hours after treatment
# Experimental: as §2
# 4EBP1pS65 = assay: Western blot IC40 of downstream effector readout; details: concentration inhibiting 4EBP1pS65 readout by 40%, SkMel133
# Experimental: as §1
# GSK3pS21 = assay: Western blot IC40 of downstream effector readout; details: concentration inhibiting GSK3pS21 readout by 40%, SkMel133
# Experimental: as §1
# MAPK1pT202 = assay: Western blot IC40 of downstream effector readout; details: concentration inhibiting MAPK1pT202 readout by 40%, SkMel133
# Experimental: as §1
# S6pS240 = assay: Western blot IC40 of downstream effector readout; details: concentration inhibiting S6pS240 readout by 40%, SkMel133
# Experimental: as §1
# STAT3pY705 = assay: Western blot IC40 of downstream effector readout; details: concentration inhibiting STAT3pY705 readout by 40%, SkMel133
# Experimental: as §1
compound,measurement,setting,value
O=c1[nH]c2ccccc2n1C1CCN(Cc2ccc(-c3nc4cc5nc[nH]c5cc4nc3-c3ccccc3)cc2)CC1 [AKTi 1/2],Dose 1 (IC40),AKTpS473,5.000 nM
O=C(CCCCCCSc1ccc2ccccc2c1)NO [HNHA],Dose 1 (IC40),P27/Kip1,"6,000 nM"
Cc1sc2c(c1C)C(c1ccc(Cl)cc1)=N[C@@H](CC(=O)OC(C)(C)C)c1nnc(C)n1-2 [JQ1],"maximal effect level (Amax, response to the drugs at highest doses)",SkMel133 cells,10%
same,c-Myc expression level,c-Myc,reduced
same,BRD4 level,BRD4,unchanged
COc1ccc(C2=NC(c3ccc(Cl)cc3)C(c3ccc(Cl)cc3)N2C(=O)N2CCNC(=O)C2)c(OC(C)C)c1 (stereo not shown) [Nutlin],Dose 1 (IC40),4EBP1pS65,"3,000 nM"
CC(C)(C)c1nc2c3cc[nH]c(=O)c3c3cc(F)ccc3c2[nH]1 [P6],Dose 1 (IC40),GSK3pS21,20 nM
O=C(NOC[C@H](O)CO)c1ccc(F)c(F)c1Nc1ccc(I)cc1F [PD0325901],Dose 1 (IC40),MAPK1pT202,1.5 nM
CCCS(=O)(=O)Nc1ccc(F)c(C(=O)c2c[nH]c3ncc(Cl)cc23)c1F [PLX4720],Dose 1 (IC40),MAPK1pT202,60 nM
Cn1cc(C2=C(c3cn(CCCN)c4ccccc34)C(=O)NC2=O)c2ccccc21 [RO-31-7549],Dose 1 (IC40),S6pS240,3500 nM
O=[N+]([O-])c1ccc2c(c1)S(=O)(=O)C=C2 [Stattic],Dose 1 (IC40),STAT3pY705,600 nM
CO[C@H]1C[C@@H]2CC[C@@H](C)[C@@](O)(O2)C(=O)C(=O)N2CCCC[C@H]2C(=O)O[C@H]([C@H](C)C[C@@H]2CC[C@@H](OC(=O)C(C)(CO)CO)[C@H](OC)C2)CC(=O)[C@H](C)/C=C(\C)[C@@H](O)[C@@H](OC)C(=O)[C@H](C)C[C@H](C)/C=C/C=C/C=C/1C [Temsirolimus],Dose 1 (IC40),S6pS240,0.3 nM
FC(F)c1nc2ccccc2n1-c1nc(N2CCOCC2)nc(N2CCOCC2)n1 [ZSTK474],Dose 1 (IC40),AKTpS473,600 nM
